Source: patent US20220167645A1, “METHODS OF IMPROVING FISH FEED CONVERSION RATE AND SURVIVAL” (AQUINOVO LTD., priority 2019, published 2022)
Numbered stars: 1 amine (or outer) side, 2 acyl side, 3 side chain; on linkers, the order of the positions; unused ones are H or OH. Square brackets hold non-standard residues; d marks the D form. Suc = O=C(CCC(=O)[*:2])[*:1]; NMeV = CN[C@H](C(=O)O)C(C)C; βAla = NCCC(=O)O

Test system: Tilapia fish
Test: Experiment #3: tilapia fed AN6-coated feed, treatment schedules 1 to 8 (survival, weight, length, size distribution, FCR)
Format: in vivo
Settings: for Average weight/fish (g) / Total weight/cage (g) / Average FCR/cage / Average density (body/cage) / Average weight gain/fish (g): D 236 to D 279, % change relative to control; for % big fish (Big fish 279 dph >1000 g) / % small fish (Small fish 279 dph >476 g) / Δ Treatment - Control (%) big fish (>1000 g) / Δ Treatment - Control (%) small fish (>476 g) / Big fish # (Big fish 279 dph >1000 g) / Small fish # (Small fish 279 dph): 279 dph
Protocol: The following fish feed was used in this experiment: MeM (powder, manufactured by Bern Aqua), Nanolis P1, P2 (pellet sizes of 1 mm, 1.2-1.5 mm, respectively, manufactured by Ocialis) and Tilaphi 2, 3 & 4 (pellet sizes of 2 mm, 3-4 mm & 5.5 mm manufactured by Ocialis). The feed content is in described in Table 4.
Feed was coated using the following general procedure: Different amounts of the peptide AN6 (SEQ ID NO: 6) were prepared by dissolving the peptide in Tris-HCl solution (50 mM, pH=8.8) in ratio of 15 mg peptide to 1.25 ml Tris-HCl solution. Then, each of the various solutions was mixed with 3 Kg of the basic feed pellets (depending on fish size) using an electric mixer. The peptide-feed mixtures where then dried either in oven at 40° C. for 24 hours or in drying drum (at room temperature) for few hours to form coated pellets.
Tilapia fish (n=4800) were raised from day 10 (0.05 g) post-hatch (dph) in indoor tanks and then transferred to outdoor cages in ponds (40-279 dph). Each cage/tank is an experimental unit. The fish were fed to apparent satiation 2-4 times a day with feed appropriate to their age and treatment as described in Table 5.
The trial included total 48 cages representing 8 treatments, with 6 repeats each. Each cage contained about 100 fish. […] Fed to fish throughout the entire growth-trial period (for 279 days); • Treatment 2 (5 ppm from 10 dph for 120 days): The control diet with the addition of 5 mg peptide/kg of diet (Feed F). Fish were fed the peptide enriched diet for 120 days (4 months), from 10 days of age (D0—the first day of the experiment) to 130 days of age (D120), and the control diet during the last 6 months (159 days) (Feed E); • Treatment 3 (10 ppm from 10 dph for 60 days): The control diet with the addition of 10 mg peptide/kg of diet (Feed G). […] Fish were fed the peptide enriched diet for 90 days (3 months) from 10 days of age (D0) to 100 days of age (D90) and the control diet for the last 7 months (189 days) (Feed E); • Treatment 5 (10 ppm from 10 dph for 120 days): The control diet with the addition of 10 mg peptide/kg of diet (Feed G). Fish were fed the peptide enriched diet for 120 days (4 months) from 10 days of age (D0) to 130 days of age (D120) and the control diet for the last 6 months (159 days) (Feed E); • Treatment 6 (10 ppm from 100 dph for 30 days): The control diet with the addition of 10 mg peptide/kg of diet (Feed G). Fish were fed the peptide enriched diet for 30 days (1 month) from 100 days of age (D90) to 130 days of age (D120) and the control diet for the first three months (90 days from D0 to D90) and the last 6 months (159 days) (Feed E); • Treatment 7 (30 ppm from 10 dph for 60 days): The control diet with the addition of 30 mg peptide/kg of diet (Feed H). Fish were fed the peptide enriched diet for 60 days (2 months) from 10 days of age (D0) to 70 days of age (D60), and the control diet during the last 8 months (219 days) (Feed E); • Treatment 8 (30 ppm from 10 dph for 90 days): The control diet with the addition of 30 mg peptide/kg of diet (Feed H). Fish were fed the peptide enriched diet for 90 days (3 months) from 10 days of age (D0) to 100 days of age (D90) and the control diet for the last 7 months (189 days) (Feed E).
During the experimental period, fish weight and length were measured once a month. Individual fish sex was determined at days 96 and 279 of the experiment. Average fish weight per cage were calculated for each measurement period (FIG. 8). […] Between two weight measurements, average weight gain (FIG. 9A) and daily growth rates (FIG. 9B) were calculated by subtracting the average weight at the beginning and end of the measuring period and dividing by the number of days between.
In order to determine the efficiency of feed conversion into fish substance in experiments (#1, #2, #3), FCR values which reflect the amount of feed needed to grow a kilogram fish, were calculated for each period and for the entire fish growth period. […]

[1] = Treatment 5 (10 ppm from 10 dph for 120 days)
[2] = Treatment 5 (10 ppm from 10 dph for 120 days), female fish, D 96
[3] = Treatment 5 (10 ppm from 10 dph for 120 days), female fish, D 279
[4] = Treatment 5 (10 ppm from 10 dph for 120 days), male fish, D 96
[5] = Treatment 5 (10 ppm from 10 dph for 120 days), male fish, D 279
[6] = Treatment 6 (10 ppm from 100 dph for 30 days)
[7] = Treatment 6 (10 ppm from 100 dph for 30 days), of 442 fish
[8] = Treatment 6 (10 ppm from 100 dph for 30 days), female fish, D 96
[9] = Treatment 6 (10 ppm from 100 dph for 30 days), female fish, D 279
[10] = Treatment 6 (10 ppm from 100 dph for 30 days), male fish, D 96
[11] = Treatment 6 (10 ppm from 100 dph for 30 days), male fish, D 279
[12] = Treatment 7 (30 ppm from 10 dph for 60 days)
[13] = Treatment 7 (30 ppm from 10 dph for 60 days), of 427 fish
[14] = Treatment 7 (30 ppm from 10 dph for 60 days), female fish, D 96
[15] = Treatment 7 (30 ppm from 10 dph for 60 days), female fish, D 279
[16] = Treatment 7 (30 ppm from 10 dph for 60 days), male fish, D 96
[17] = Treatment 7 (30 ppm from 10 dph for 60 days), male fish, D 279
[18] = Treatment 8 (30 ppm from 10 dph for 90 days)
[19] = Treatment 8 (30 ppm from 10 dph for 90 days), of 446 fish
[20] = Treatment 8 (30 ppm from 10 dph for 90 days), female fish, D 96
[21] = Treatment 8 (30 ppm from 10 dph for 90 days), female fish, D 279
[22] = Treatment 8 (30 ppm from 10 dph for 90 days), male fish, D 96
[23] = Treatment 8 (30 ppm from 10 dph for 90 days), male fish, D 279

Succ-Asp-Ser- D-Trp -N(Me)Val-βAla-Leu-Met-NH2 (Suc-DS[dW][NMeV][βAla]LM-NH2; SMILES CSCC[C@H](NC(=O)[C@H](CC(C)C)NC(=O)CCNC(=O)[C@H](C(C)C)N(C)C(=O)[C@@H](Cc1c[nH]c2ccccc12)NC(=O)[C@H](CO)NC(=O)[C@H](CC(=O)O)NC(=O)CCC(=O)O)C(N)=O) [AN6]
Average weight/fish (g) [1]: 3.29%
Total weight/cage (g) [1]: 1.28%
Length/fish (cm) Mean [2]: 15.95 cm
Weight/fish (g) Mean [2]: 82.96 g
Δ Mean % (Treatment vs. control) Length/fish [2]: 1.01%
Δ Mean % (Treatment vs. control) Weight/fish [2]: 0.90%
Length/fish (cm) Mean [3]: 30.33 cm
Weight/fish (g) Mean [3]: 611.23 g
Δ Mean % (Treatment vs. control) Length/fish [3]: 0.66%
Δ Mean % (Treatment vs. control) Weight/fish [3]: 1.55%
Length/fish (cm) Mean [4]: 17.08 cm
Weight/fish (g) Mean [4]: 100.46 g
Δ Mean % (Treatment vs. control) Length/fish [4]: −0.81%
Δ Mean % (Treatment vs. control) Weight/fish [4]: −4.78%
Length/fish (cm) Mean [5]: 34.21 cm
Weight/fish (g) Mean [5]: 859.1 g
Δ Mean % (Treatment vs. control) Length/fish [5]: −0.49%
Δ Mean % (Treatment vs. control) Weight/fish [5]: −0.72%
% big fish (Big fish 279 dph >1000 g) [6]: 12.9%
% small fish (Small fish 279 dph >476 g) [6]: 6.6%
Δ Treatment - Control (%) big fish (>1000 g) [6]: 2.7%
Δ Treatment - Control (%) small fish (>476 g) [6]: −2.6%
Big fish # (Big fish 279 dph >1000 g) [7]: 57
Small fish # (Small fish 279 dph) [7]: 29
Average FCR/cage [6]: 0.00%
Average density (body/cage) [6]: −1.55%
Average weight gain/fish (g) [6]: 2.11%
Average weight/fish (g) [6]: 0.97%
Total weight/cage (g) [6]: −0.53%
Length/fish (cm) Mean [8]: 16.04 cm
Weight/fish (g) Mean [8]: 87.28 g
Δ Mean % (Treatment vs. control) Length/fish [8]: 1.58%
Δ Mean % (Treatment vs. control) Weight/fish [8]: 6.15%
Length/fish (cm) Mean [9]: 30.45 cm
Weight/fish (g) Mean [9]: 617.44 g
Δ Mean % (Treatment vs. control) Length/fish [9]: 1.06%
Δ Mean % (Treatment vs. control) Weight/fish [9]: 2.58%
Length/fish (cm) Mean [10]: 17.07 cm
Weight/fish (g) Mean [10]: 105.78 g
Δ Mean % (Treatment vs. control) Length/fish [10]: −0.87%
Δ Mean % (Treatment vs. control) Weight/fish [10]: 0.27%
Length/fish (cm) Mean [11]: 34.19 cm
Weight/fish (g) Mean [11]: 863.26 g
Δ Mean % (Treatment vs. control) Length/fish [11]: −0.55%
Δ Mean % (Treatment vs. control) Weight/fish [11]: −0.24%
% big fish (Big fish 279 dph >1000 g) [12]: 10.8%
% small fish (Small fish 279 dph >476 g) [12]: 5.4%
Δ Treatment - Control (%) big fish (>1000 g) [12]: 0.5%
Δ Treatment - Control (%) small fish (>476 g) [12]: −3.7%
Big fish # (Big fish 279 dph >1000 g) [13]: 46
Small fish # (Small fish 279 dph) [13]: 23
Average FCR/cage [12]: 0.00%
Average density (body/cage) [12]: −4.89%
Average weight gain/fish (g) [12]: 1.43%
Average weight/fish (g) [12]: 1.37%
Total weight/cage (g) [12]: −4.56%
Length/fish (cm) Mean [14]: 15.73 cm
Weight/fish (g) Mean [14]: 82.52 g
Δ Mean % (Treatment vs. control) Length/fish [14]: −0.38%
Δ Mean % (Treatment vs. control) Weight/fish [14]: 0.36%
Length/fish (cm) Mean [15]: 30.53 cm
Weight/fish (g) Mean [15]: 628.2 g
Δ Mean % (Treatment vs. control) Length/fish [15]: 1.33%
Δ Mean % (Treatment vs. control) Weight/fish [15]: 4.37%
Length/fish (cm) Mean [16]: 17.78 cm
Weight/fish (g) Mean [16]: 109.68 g
Δ Mean % (Treatment vs. control) Length/fish [16]: 3.25%
Δ Mean % (Treatment vs. control) Weight/fish [16]: 3.96%
Length/fish (cm) Mean [17]: 34.04 cm
Weight/fish (g) Mean [17]: 840.39 g
Δ Mean % (Treatment vs. control) Length/fish [17]: −0.99%
Δ Mean % (Treatment vs. control) Weight/fish [17]: −2.88%
% big fish (Big fish 279 dph >1000 g) [18]: 20.4%
% small fish (Small fish 279 dph >476 g) [18]: 5.6%
Δ Treatment - Control (%) big fish (>1000 g) [18]: 10.2%
Δ Treatment - Control (%) small fish (>476 g) [18]: −3.5%
Big fish # (Big fish 279 dph >1000 g) [19]: 91
Small fish # (Small fish 279 dph) [19]: 25
Average FCR/cage [18]: −2.14%
Average density (body/cage) [18]: −0.67%
Average weight gain/fish (g) [18]: 13.57%
Average weight/fish (g) [18]: 7.11%
Total weight/cage (g) [18]: 6.23%
Length/fish (cm) Mean [20]: 16.17 cm
Weight/fish (g) Mean [20]: 89.02 g
Δ Mean % (Treatment vs. control) Length/fish [20]: 2.41%
Δ Mean % (Treatment vs. control) Weight/fish [20]: 8.27%
Length/fish (cm) Mean [21]: 30.65 cm
Weight/fish (g) Mean [21]: 649.16 g
Δ Mean % (Treatment vs. control) Length/fish [21]: 1.73%
Δ Mean % (Treatment vs. control) Weight/fish [21]: 7.85%
Length/fish (cm) Mean [22]: 17.21 cm
Weight/fish (g) Mean [22]: 106.64 g
Δ Mean % (Treatment vs. control) Length/fish [22]: −0.06%
Δ Mean % (Treatment vs. control) Weight/fish [22]: 1.08%
Length/fish (cm) Mean [23]: 34.56 cm
Weight/fish (g) Mean [23]: 912.05 g
Δ Mean % (Treatment vs. control) Length/fish [23]: 0.52%
Δ Mean % (Treatment vs. control) Weight/fish [23]: 5.40%
average weight of males and females compared to their respective controls (differential analysis of male vs female performances): improved average weight
